# Results: patent US20240254119A1 (THIRD HARMONIC BIO, INC., priority 2022, published 2024)
# Experiments:
# [1] = target: T1, wtKIT (Homo sapiens, UniProt P10721); test: HTRF biochemical assay, wtKIT (phosphorylation of a peptide substrate); settings: Table 4
# T1 construct: 1888289AM in the reaction mixtures
# Outline: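 wtKIT (5.0 nM) phosphorylating 1 µM FAM-labelled peptide with 400 µM ATP and 10 mM MnCl2 in 100 mM HEPES pH 7.5, 1% DMSO, 3 h at 25 °C. EDTA quench; phosphopeptide detected with anti-phosphotyrosine antibody by HTRF. Enzyme titrated for 10-20% substrate conversion.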
# [2] = target: T1, wtKIT; test: Caliper biochemical assay, wtKIT; settings: Table 6, read-out: KIT Biochemical IC50 avg
# Experimental: Enzyme, substrate, and cofactors (ATP and Mn^2+) are combined in a well of a microtiter plate and incubated for 3 hours at 25° C. At the end of the incubation, the reaction is quenched by the addition of an EDTA-containing buffer. Substrate and product are separated electrophoretically using the microfluidic-based LabChip 3000 Drug Discovery System from Caliper Life Sciences* and quantitated by fluorescence intensity.
# The substrate used in the CSF-1R and PDGFRα assay is FAM-[…]-CONH2 (FAM is carboxyfluorescein). Peptide should be >95% purity. The substrate for the KIT assay is FAM-[…]-NH2.
# • 1. To a well of a 384-well plate add 5 μL of 2× enzyme buffer (or control) • 2. Add 100 nL of 100× compound. • 3. Add 5 μL of 2× substrate buffer. • 4. Incubate plate at 25° C. for 3 hours. • 5. Add 10 uL of […]. • 6. Read plate LabChip 3000 Drug Discovery System
# • 3 hours at 25° C. where 100% Inhibitor: No enzyme.
# • 100 mM HEPES, pH 7.5 0.1% BSA • 0.01% Triton X-100 • 1 mM DTT • 10 mM MnCl2 • 10 μM Sodium Orthovanadate • 10 μM Beta-Glycerophosphate • 400 μM ATP • 1% DMSO (from compound) • 1 μM FAM-[…]-CONH2 5.0 nM wtKIT Enzyme (1888289AM)* • *Specific activity may vary from lot to lot. Enzyme concentration may need to be adjusted to yield 10-20% conversion of substrate to product.
# [3] = Kinetic solubility assay; assay type: physicochemical; settings: kinetic solubility, 50 mM PB (pH 7.4), shaken 24 hours at RT
# Experimental: 10 μL of 10 mM in DMSO of test article and control compounds was added into lower chambers of whatman miniuniprep vials, respectively. 490 μL of 50 mM PB (pH 7.4) was then added into lower chambers of the whatman miniuniprep vials, respectively. […] Miniuniprep vials were shaken for 24 hours at RT at the speed of 800 rpm, centrifuged 20 minutes (eg. 4000 rpm) and the filtrates were analyzed by UPLC-UV/HPLC-UV system to calculate the concentration with standard curve.
# Filter Membrane: Miniuniprep (PTFE Filter Media with Polypropylene Housing) Cat. No. UN203NPUORG, GE Halthcare Whatman.
# [4] = target: T2, BCRP (BCRP-MDCKII monolayer) (Homo sapiens, UniProt Q9UNQ0); test: MDCKII-BCRP bidirectional transport assay; assay type: in vitro ADME; settings: for MDCK-BCRP: Papp A-B: apical to basolateral
# T2 construct: host or cells: MDCKII (canine kidney) cells
# T2 sequence (Q9UNQ0 1-655): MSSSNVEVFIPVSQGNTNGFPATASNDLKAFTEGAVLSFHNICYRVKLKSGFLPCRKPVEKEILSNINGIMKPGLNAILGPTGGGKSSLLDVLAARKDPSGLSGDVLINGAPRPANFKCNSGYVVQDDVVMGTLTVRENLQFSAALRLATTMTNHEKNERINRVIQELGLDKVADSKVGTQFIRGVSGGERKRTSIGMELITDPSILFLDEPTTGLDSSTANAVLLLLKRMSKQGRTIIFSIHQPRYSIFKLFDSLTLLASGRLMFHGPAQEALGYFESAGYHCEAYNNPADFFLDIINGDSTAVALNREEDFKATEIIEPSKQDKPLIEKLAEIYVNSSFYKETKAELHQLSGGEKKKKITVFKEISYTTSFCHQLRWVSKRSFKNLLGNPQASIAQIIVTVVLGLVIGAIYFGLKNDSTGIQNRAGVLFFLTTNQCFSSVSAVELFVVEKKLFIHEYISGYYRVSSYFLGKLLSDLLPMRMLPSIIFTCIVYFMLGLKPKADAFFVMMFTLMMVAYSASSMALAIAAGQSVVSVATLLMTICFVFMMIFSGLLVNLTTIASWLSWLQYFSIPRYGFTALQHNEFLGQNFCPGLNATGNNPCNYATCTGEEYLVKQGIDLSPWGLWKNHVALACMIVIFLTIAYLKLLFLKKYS
# Experimental: Exemplary compounds were tested for cell permeability in Caco-2, MDCKII-MDR1 and MDCKII-BCRP cell lines with efflux transporter engagement inferred from the efflux ratios determined. Procedures and results are described below. […] This feature of certain compounds is in part due to efflux transporter engagement. See, for instance, exemplary such compounds included in data tables below.
# The reference compound Teriflunomide and test compounds are tested in the bidirectional assay. Test compound and reference compounds incubations were tested in duplicates.
# The transport assay can be performed between days 12 to day 15 using ready to use PreadyPort™ BCRP-MDCKII monolayer in 96 well plate.
# The medium was aspirated from the apical and basal compartments and 75 and 235 μL assay buffer was added to each of the 96 wells of apical and basal compartments of the PreadyPort™ plate.
# The plates were pre-incubated for 15 min at 37° C. with 5% CO2 in humidified atmosphere. After preincubation the assay buffer was removed from the apical and basal inserts of the plate.
# In apical to basolateral (A→B) transport, 75 μL of test or reference compound working solution to apical inserts and 235 μL of blank assay buffer were added to the corresponding basal compartments.
# In basolateral to apical transport, 235 μL of test or reference compound working solution to the basal compartments and 75 μL of blank assay buffer solution were added to corresponding apical inserts.
# The sandwich plate was incubated for 120 min in incubator at 5% CO2 and 37° C.
# After incubation, 60 μL was transferred from receiver and donor compartments to collection plate.
# For donor and C0 samples 20-fold dilution was accomplished by mixing 60 μL of collected sample with 1140 μL of transport buffer and from that solution aliquot 60 μL transfer Both receiver and donor samples were processed by adding […] of acetonitrile containing internal standard (60 μL of sample+240 μL of acetonitrile containing glyburide as internal standard, 125 ng/mL) and vortexing the samples. The compound concentration was measured in all samples using respective calibration standards by LC-MS/MS.
# Calculate the Papp and recovery using the given formula:
# [formula] [formula] • Where: dQ/dt=Permeability rate in μM/see • C0=Initial concentration in μM • A=Membrane surface area (0.33 cm^2) • V=Volume of receiver chamber • Cend, a=concentration in acceptor well at end of incubation • Cend, d=concentration in donor well at end of incubation • CHBSS=loading concentration measured in HBSS
# T1 sequence (P10721 26-976): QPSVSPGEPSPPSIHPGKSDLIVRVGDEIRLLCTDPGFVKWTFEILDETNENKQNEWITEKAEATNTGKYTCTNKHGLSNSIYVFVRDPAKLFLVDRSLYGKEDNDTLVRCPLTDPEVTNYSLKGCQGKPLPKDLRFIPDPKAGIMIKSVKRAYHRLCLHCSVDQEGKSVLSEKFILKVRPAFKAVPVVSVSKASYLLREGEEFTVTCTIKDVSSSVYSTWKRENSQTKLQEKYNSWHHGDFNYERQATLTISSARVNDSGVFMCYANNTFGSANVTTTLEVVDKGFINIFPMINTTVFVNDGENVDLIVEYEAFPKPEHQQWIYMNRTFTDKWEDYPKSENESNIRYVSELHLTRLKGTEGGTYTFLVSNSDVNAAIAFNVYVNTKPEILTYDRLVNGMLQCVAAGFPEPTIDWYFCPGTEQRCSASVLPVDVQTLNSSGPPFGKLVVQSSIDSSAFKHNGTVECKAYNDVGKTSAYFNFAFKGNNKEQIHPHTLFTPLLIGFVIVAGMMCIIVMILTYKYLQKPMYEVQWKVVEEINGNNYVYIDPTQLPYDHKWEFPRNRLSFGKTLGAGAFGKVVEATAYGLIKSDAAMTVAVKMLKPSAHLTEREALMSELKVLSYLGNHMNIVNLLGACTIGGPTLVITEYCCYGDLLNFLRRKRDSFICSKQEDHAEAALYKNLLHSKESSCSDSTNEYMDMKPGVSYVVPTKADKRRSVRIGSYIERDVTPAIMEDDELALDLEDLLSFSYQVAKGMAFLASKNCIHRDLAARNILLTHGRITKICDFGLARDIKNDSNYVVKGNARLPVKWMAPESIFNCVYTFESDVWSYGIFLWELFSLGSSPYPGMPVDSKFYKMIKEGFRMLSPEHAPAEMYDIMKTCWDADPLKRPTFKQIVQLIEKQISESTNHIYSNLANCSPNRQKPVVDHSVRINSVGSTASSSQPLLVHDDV
IC50 [1] [nM],IC50 [2] [nM],Compound,Solubility (μM) [3],MDCK-BCRP: Efflux Ratio [4],MDCK-BCRP: Papp A-B [4]
≤ 50,≤ 50,CCNc1ccn2c(C(=O)Nc3cc(-c4noc(C)n4)ccc3C)cnc2c1 [Compound I-229],**** (a solubility less than or equal to 2 μM),–,–
50 to 500,≤ 50,COC(=O)N1CC(c2nc(-c3ccc(C)c(NC(=O)c4cnc5ccc(OCCO)cn45)c3)no2)C1 [Compound I-247],*** (a solubility greater than 2 μM and less than or equal to 10 μM),–,–
–,≤ 50,Cc1ccc(-c2noc(C3CC4(COCCO4)C3)n2)cc1NC(=O)c1cnc2ccccn12 (stereo not drawn) [Compound I-343],** (a solubility greater than 10 μM and less than or equal to 50 μM),2.36,8.04 10^−6 cm/s
50 to 500,50 to 500,Cc1ccc(-c2noc([C@H]3C[C@@H]3F)n2)cc1NC(=O)c1cnc2cc(NS(=O)(=O)c3c(C)noc3C)ccn12 [Compound I-226],* (a solubility greater than 50 μM),–,–
–,50 to 500,Cc1ccc(-c2noc([C@H]3C[C@@H]3F)n2)cc1NC(=O)c1cnc2ccc(Cl)nn12 [Compound I-289],*** (a solubility greater than 2 μM and less than or equal to 10 μM),–,–
–,≤ 50,Cc1ccc(-c2noc(C3C(C)CC3C)n2)cc1NC(=O)c1cnc2ccccn12 (stereo not drawn) [Compound I-315],**** (a solubility less than or equal to 2 μM),–,–
≤ 50,≤ 50,Cc1nc(-c2ccc(C)c(NC(=O)c3cnc4ccc(N5CCCCC5)cn34)c2)no1 [Compound I-206],**** (a solubility less than or equal to 2 μM),–,–
50 to 500,≤ 50,Cc1ccc(-c2noc([C@H]3CC(=O)CN3)n2)cc1NC(=O)c1cnc2ccccn12 [Compound I-223],–,–,–
–,≤ 50,Cc1ccc(-c2noc([C@H]3C[C@@H]3F)n2)cc1NC(=O)c1cnc2cc(N3CCC(C)CC3)ccn12 [Compound I-303],**** (a solubility less than or equal to 2 μM),–,–
–,≤ 50,Cc1ccc(-c2noc([C@H]3C[C@@H]3F)n2)cc1NC(=O)c1cnc2ccc(Nc3ccc4c(c3)OCCO4)cn12 [Compound I-290],*** (a solubility greater than 2 μM and less than or equal to 10 μM),–,–
50 to 500,≤ 50,Cc1ccc(-c2noc([C@@H]3CC(=O)N3)n2)cc1NC(=O)c1cnc2ccccn12 (racemic) [Compound I-224],* (a solubility greater than 50 μM),–,–
50 to 500,50 to 500,Cc1ccc(-c2noc([C@H]3CCN3)n2)cc1NC(=O)c1cnc2cc(C#N)ccn12 [Compound I-244],* (a solubility greater than 50 μM),–,–
≤ 50,≤ 50,Cc1ccc(-c2noc([C@H]3C[C@@H]3F)n2)cc1NC(=O)c1cnc2cc(C(N)=O)ccn12 [Compound I-207],**** (a solubility less than or equal to 2 μM),–,–
–,–,Cc1ccc(-c2noc(C3CCC3F)n2)cc1NC(=O)c1cnc2ccccn12 (stereo not drawn) [Compound I-400],**** (a solubility less than or equal to 2 μM),1.44,11.7 10^−6 cm/s
50 to 500,≤ 50,COC(=O)N1CC(c2nc(-c3ccc(C)c(NC(=O)c4cnc5ccc(OC[C@@H](C)O)cn45)c3)no2)C1 [Compound I-227],** (a solubility greater than 10 μM and less than or equal to 50 μM),–,–
50 to 500,50 to 500,COC(=O)N1CC(c2nc(-c3ccc(C)c(NC(=O)c4cnc5ccc(OCC(C)(C)O)cn45)c3)no2)C1 [Compound I-239],** (a solubility greater than 10 μM and less than or equal to 50 μM),–,–
50 to 500,50 to 500,Cc1ccc(-c2noc([C@H]3CCN3S(=O)(=O)c3cccnc3)n2)cc1NC(=O)c1cnc2ccccn12 [Compound I-233],** (a solubility greater than 10 μM and less than or equal to 50 μM),–,–
–,≤ 50,COc1ccc(Nc2ccn3c(C(=O)Nc4cc(-c5noc([C@H]6C[C@@H]6F)n5)ccc4C)cnc3c2)cc1OC [Compound I-285],**** (a solubility less than or equal to 2 μM),–,–
–,≤ 50,Cc1ccc(-c2noc(C3CC3F)n2)cc1NC(=O)c1cnc2ccc(Nc3ccc(OC(F)F)cc3)cn12 (stereo not drawn) [Compound I-284],*** (a solubility greater than 2 μM and less than or equal to 10 μM),–,–
–,≤ 50,Cc1ccc(-c2noc(C3(C)CCCC3(F)F)n2)cc1NC(=O)c1cnc2ccccn12 (racemic) [Compound I-374],**** (a solubility less than or equal to 2 μM),–,–
–,≤ 50,Cc1cc(C)cc(Nc2ccn3c(C(=O)Nc4cc(-c5noc([C@H]6C[C@@H]6F)n5)ccc4C)cnc3c2)c1 [Compound I-292],*** (a solubility greater than 2 μM and less than or equal to 10 μM),–,–
≤ 50,≤ 50,Cc1nc(-c2ccc(C)c(NC(=O)c3cnc4ccc(N5CCOCC5)cn34)c2)no1 [Compound I-218],**** (a solubility less than or equal to 2 μM),–,–
–,≤ 50,CC(C)(C)OC(=O)N1CC(c2nc(-c3ccc(Cl)c(NC(=O)c4cnc5ccccn45)c3)no2)C1 [Compound I-333],**** (a solubility less than or equal to 2 μM),–,–
